From PubChem BioAssay (NCI)
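Five compound concentrations were applied to cells in 96-well plates for 48 hours; endpoints were derived by simple linear interpolation of the resulting dose-response curve. The concentration for 50% growth inhibition is given as GI50. The concentration for full growth arrest is given as TGI.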

Legend:
Assay in all cases: DTP human tumour cell line panel, 48 h
CAKI-1 renal = tested on: CAKI-1 renal
NCI-H226 lung = tested on: NCI-H226 lung
LOX IMVI melanoma = tested on: LOX IMVI melanoma
SF-295 CNS = tested on: SF-295 CNS
DU-145 prostate = tested on: DU-145 prostate
SK-OV-3 ovarian = tested on: SK-OV-3 ovarian
HS 578T breast = tested on: HS 578T breast
UO-31 renal = tested on: UO-31 renal
HT29 colon = tested on: HT29 colon
786-0 renal = tested on: 786-0 renal
A498 renal = tested on: A498 renal
OVCAR-4 ovarian = tested on: OVCAR-4 ovarian
SR leukemia = tested on: SR leukemia
SF-539 CNS = tested on: SF-539 CNS
MALME-3M melanoma = tested on: MALME-3M melanoma
BT-549 breast = tested on: BT-549 breast
M14 melanoma = tested on: M14 melanoma
SNB-19 CNS = tested on: SNB-19 CNS
NCI-H460 lung = tested on: NCI-H460 lung
EKVX NSCLC = tested on: EKVX NSCLC
MDA-MB-435 = tested on: MDA-MB-435
SNB-75 CNS = tested on: SNB-75 CNS
MDA-MB-231 breast = tested on: MDA-MB-231 breast
PC-3 prostate = tested on: PC-3 prostate
OVCAR-3 ovarian = tested on: OVCAR-3 ovarian
ACHN renal = tested on: ACHN renal
SK-MEL-28 melanoma = tested on: SK-MEL-28 melanoma
COLO 205 colon = tested on: COLO 205 colon
SK-MEL-5 melanoma = tested on: SK-MEL-5 melanoma
NCI/ADR-RES ovarian = tested on: NCI/ADR-RES ovarian
HL-60(TB) leukemia = tested on: HL-60(TB) leukemia
NCI-H23 lung = tested on: NCI-H23 lung
HOP-92 NSCLC = tested on: HOP-92 NSCLC
OVCAR-5 ovarian = tested on: OVCAR-5 ovarian
U251 CNS = tested on: U251 CNS
T-47D breast = tested on: T-47D breast
SF-268 CNS = tested on: SF-268 CNS
KM12 colon = tested on: KM12 colon
A549 NSCLC = tested on: A549 NSCLC
UACC-62 melanoma = tested on: UACC-62 melanoma
IGROV1 ovarian = tested on: IGROV1 ovarian
SW-620 colon = tested on: SW-620 colon
SK-MEL-2 melanoma = tested on: SK-MEL-2 melanoma
SN12C renal = tested on: SN12C renal
OVCAR-8 ovarian = tested on: OVCAR-8 ovarian
RPMI-8226 leukemia = tested on: RPMI-8226 leukemia
NCI-H522 lung = tested on: NCI-H522 lung
TK-10 renal = tested on: TK-10 renal
HCT-116 colon = tested on: HCT-116 colon
HCT-15 colon = tested on: HCT-15 colon
HOP-62 NSCLC = tested on: HOP-62 NSCLC
CCRF-CEM leukemia = tested on: CCRF-CEM leukemia
HCC-2998 colon = tested on: HCC-2998 colon
MCF7 breast = tested on: MCF7 breast
MOLT-4 leukemia = tested on: MOLT-4 leukemia
K-562 leukemia = tested on: K-562 leukemia

Compound: CC(=O)O[C@H]1CC[C@@]2(C)C(=C/C(=N/OCCN3CCCC3)[C@H]3[C@@H]4CC[C@H](OC(C)=O)[C@@]4(C)CC[C@@H]32)C1
- GI50 (CAKI-1 renal): > 100 µM
- TGI (CAKI-1 renal): > 100 µM
- GI50 (NCI-H226 lung): > 100 µM
- TGI (NCI-H226 lung): > 100 µM
- GI50 (LOX IMVI melanoma): 19.6 µM
- TGI (LOX IMVI melanoma): 38.1 µM
- GI50 (SF-295 CNS): 26.1 µM
- TGI (SF-295 CNS): 66.1 µM
- GI50 (DU-145 prostate): > 100 µM
- TGI (DU-145 prostate): > 100 µM
- GI50 (SK-OV-3 ovarian): 40.8 µM
- TGI (SK-OV-3 ovarian): > 100 µM
- GI50 (HS 578T breast): 34.9 µM
- TGI (HS 578T breast): > 100 µM
- GI50 (UO-31 renal): 20.8 µM
- TGI (UO-31 renal): 53.3 µM
- GI50 (HT29 colon): 12.5 µM
- TGI (HT29 colon): > 100 µM
- GI50 (786-0 renal): 30.8 µM
- TGI (786-0 renal): > 100 µM
- GI50 (A498 renal): 76.7 µM
- TGI (A498 renal): > 100 µM
- GI50 (OVCAR-4 ovarian): > 100 µM
- TGI (OVCAR-4 ovarian): > 100 µM
- GI50 (SR leukemia): 10.4 µM
- TGI (SR leukemia): 44.1 µM
- GI50 (SF-539 CNS): > 100 µM
- TGI (SF-539 CNS): > 100 µM
- GI50 (MALME-3M melanoma): 18 µM
- TGI (MALME-3M melanoma): 36.1 µM
- GI50 (BT-549 breast): 53.4 µM
- TGI (BT-549 breast): > 100 µM
- GI50 (M14 melanoma): 17.6 µM
- TGI (M14 melanoma): 37.2 µM
- GI50 (SNB-19 CNS): 69.1 µM
- TGI (SNB-19 CNS): > 100 µM
- GI50 (NCI-H460 lung): 24.8 µM
- TGI (NCI-H460 lung): 52.1 µM
- GI50 (EKVX NSCLC): > 100 µM
- TGI (EKVX NSCLC): > 100 µM
- GI50 (MDA-MB-435): 53 µM
- TGI (MDA-MB-435): > 100 µM
- GI50 (SNB-75 CNS): 68 µM
- TGI (SNB-75 CNS): > 100 µM
- GI50 (MDA-MB-231 breast): 38.7 µM
- TGI (MDA-MB-231 breast): > 100 µM
- GI50 (PC-3 prostate): 40.5 µM
- TGI (PC-3 prostate): > 100 µM
- GI50 (OVCAR-3 ovarian): > 100 µM
- TGI (OVCAR-3 ovarian): > 100 µM
- GI50 (ACHN renal): > 100 µM
- TGI (ACHN renal): > 100 µM
- GI50 (SK-MEL-28 melanoma): 31.2 µM
- TGI (SK-MEL-28 melanoma): 64.1 µM
- GI50 (COLO 205 colon): 18.5 µM
- TGI (COLO 205 colon): 34.9 µM
- GI50 (SK-MEL-5 melanoma): 17.3 µM
- TGI (SK-MEL-5 melanoma): 31.9 µM
- GI50 (NCI/ADR-RES ovarian): > 100 µM
- TGI (NCI/ADR-RES ovarian): > 100 µM
- GI50 (HL-60(TB) leukemia): 23.3 µM
- TGI (HL-60(TB) leukemia): 57.7 µM
- GI50 (NCI-H23 lung): > 100 µM
- TGI (NCI-H23 lung): > 100 µM
- GI50 (HOP-92 NSCLC): 16.7 µM
- TGI (HOP-92 NSCLC): 96.5 µM
- GI50 (OVCAR-5 ovarian): 73.8 µM
- TGI (OVCAR-5 ovarian): > 100 µM
- GI50 (U251 CNS): 67.1 µM
- TGI (U251 CNS): > 100 µM
- GI50 (T-47D breast): 52.1 µM
- TGI (T-47D breast): > 100 µM
- GI50 (SF-268 CNS): > 100 µM
- TGI (SF-268 CNS): > 100 µM
- GI50 (KM12 colon): 40.7 µM
- TGI (KM12 colon): > 100 µM
- GI50 (A549 NSCLC): 63.3 µM
- TGI (A549 NSCLC): > 100 µM
- GI50 (UACC-62 melanoma): 45.3 µM
- TGI (UACC-62 melanoma): > 100 µM
- GI50 (IGROV1 ovarian): 31.4 µM
- TGI (IGROV1 ovarian): > 100 µM
- GI50 (SW-620 colon): 24.1 µM
- TGI (SW-620 colon): 59.8 µM
- GI50 (SK-MEL-2 melanoma): 26.3 µM
- TGI (SK-MEL-2 melanoma): 65 µM
- GI50 (SN12C renal): > 100 µM
- TGI (SN12C renal): > 100 µM
- GI50 (OVCAR-8 ovarian): > 100 µM
- TGI (OVCAR-8 ovarian): > 100 µM
- GI50 (RPMI-8226 leukemia): 22 µM
- TGI (RPMI-8226 leukemia): 53.3 µM
- GI50 (NCI-H522 lung): 47.5 µM
- TGI (NCI-H522 lung): > 100 µM
- GI50 (TK-10 renal): 90.4 µM
- TGI (TK-10 renal): > 100 µM
- GI50 (HCT-116 colon): 27.8 µM
- TGI (HCT-116 colon): > 100 µM
- GI50 (HCT-15 colon): 20.1 µM
- TGI (HCT-15 colon): 45 µM
- GI50 (HOP-62 NSCLC): 29.2 µM
- TGI (HOP-62 NSCLC): > 100 µM
- GI50 (CCRF-CEM leukemia): 42.9 µM
- TGI (CCRF-CEM leukemia): > 100 µM
- GI50 (HCC-2998 colon): 45 µM
- TGI (HCC-2998 colon): > 100 µM
- GI50 (MCF7 breast): 53.4 µM
- TGI (MCF7 breast): > 100 µM
- GI50 (MOLT-4 leukemia): 29.6 µM
- TGI (MOLT-4 leukemia): 84.3 µM
- GI50 (K-562 leukemia): 27.3 µM
- TGI (K-562 leukemia): > 100 µM
